Reference: patent US6338963B1, “Use of carbon monoxide dependent guanylyl cyclase modifiers to stimulate neuritogenesis” (NeoTherapeutics, Inc., priority 1994, dated 2002)

Columns and labels:
BDNF mRNA = test: Northern blot of neurotrophin mRNA from astrocytes: BDNF; assay type: cell-based, NIH Swiss mice; set-up: key: The conditions which produced a detectable amount of each of the neurotrophin mRNAs are indicated by a “+”; a “++” indicating that at least twice the detectable amount was present; Those blots which were negative are indicated by a “−”; conditions: 24 hours
Description: Induction of neurotrophin mRNA was determined by northern blot analysis of astrocytes cultured with AIT-082, NGF, or both. The cells were harvested and RNA extracted at 24 hours after treatment.
More particularly, astrocytes from the cerebral cortex of NIH Swiss mice (Harlan) were isolated. Briefly, newborn pups (0-24 hours) were decapitated. Their brains were removed under aseptic conditions and were placed in modified Dulbecco's medium (DMEM) containing 20% heat-inactivated horse serum (Hyclone) (“complete medium”). The neopallium was then dissected from each cerebral hemisphere and minced into 1 mm cubes.
The astrocytes were then isolated by mechanical dissociation. The cubes were vortexed at maximum speed for one minute. The cell suspension was then passed first through 75 mm Nitex then through 10 mm Nitex. The resulting cell suspension was diluted in complete medium to a final concentration of one brain per 10 ml of complete medium. Ten milliliters of the diluted cell suspension was added to each 100 mm Falcon tissue culture plate (Fisher). After 3 days the medium was replaced with 10 ml fresh complete medium and subsequently was replaced twice weekly with DMEM containing 10% heat inactivated horse serum (“growth medium”). After two weeks in culture the astrocytes formed a confluent monolayer.
For RNA extraction, astrocytes were trypsinized. The astrocytes were then replated onto 100 mm PORN coated plates at a cell density of 10^6 cells per plate (10 ml growth medium). […]
The blots were probed with ^32P-labeled cDNA (NGF, NT-3 and BDNF probes) or oligonucleotide probe (FGF-2) by hybridization in Piperazine-N,N′-bis-(2-ethanesulfonic acid) (PIPES) buffer (50 mM PIPES, pH 6.8; 50 mM NaH2PO4; 0.1 M NaCl; 5% SDS and 1 mM EDTA) overnight at 50° C. […] Various concentrations ([…] of total RNA), as determined by spectrophotometry, of each sample were blotted and probed so that quantification could be done after insuring a linear film response. Quantification was performed using MCID Image Analysis (St. Catherine's, Ontario, Canada). […]

Swiss Webster mice = test: Locomotor activity (spontaneous movements), Swiss Webster mice; assay type: in vivo
Description: The activity of AIT-082 was compared with tacrine (THA) and physostigmine (PHY), experimental anticholinesterase agents which enhance memory in animals. The drugs were also evaluated for their effects on locomotor activity. In the win-shift memory paradigm, AIT-082 was evaluated for its ability to induce tolerance after 18 days of drug administration. In addition AIT-082 was tested for its activity to modify learning in a modified T-maze discrimination task.
The drugs used in this example are 4-((3-(1,6-dihydro-6-oxo-9-purin-9-yl)-1-oxopropyl)amino) benzoic acid (AIT-082), as an exemplary potassium salt, tacrine hydrochloride (tetrahydroaminoacridine, THA, Sigma Chemical Co., St. Louis, Mo.), and physostigmine, hemisulfate salt (PHY, Sigma Chemical Co., St. Louis, Mo.). The drugs were dissolved in saline and prepared fresh daily. All injections were made at a volume of 0.1 ml/10 grams body weight. When testing drug effects, intraperitoneal (i.p.) injections of AIT-082 or THA were made one hour prior to the start of testing. Due to its shorter duration of action, PHY was injected 30 minutes prior to testing. Control subjects receive a similar injection of saline (vehicle).

[1] = Appearance and weight during one week in drinking water; assay type: in vivo, F344 rats; conditions: 30 mg/kg/day and ~3,000 mg/kg/day in drinking water
Description: Adult female F344 rats were given either AIT-082 (doses: 30 mg/kg/day or a higher dose of 30 mg/ml (˜3,000 mg/kg/day); n=6 rats per group) in their drinking water, or water alone, as a vehicle for control. The duration of the study was seven days, at which time the rats were anesthesized and perfused with ice-cold saline. The brains of the rats were rapidly removed. The brains were placed on a chilled glass plate and dissected into the following regions: basal forebrain, frontal cortex, parietal cortex, cerebellum, spinal cord, and hippocampal formation. Tissues were stored at −70° C. until assayed in a specific two-site ELISA for either NGF, BDNF, NT-3, or GNDF.
This effect was not seen in animals treated with AIT-082 at 3000 mg/kg/day.

rat cultured astrocytes = test: Release of radioactively labeled adenine-based purines from rat cultured astrocytes; assay type: cell-based; conditions: 300 μM, 1 hour
Description: The experiments were carried out on cultured astrocytes of rat hippocampus at the fourth day in vitro (DIV), obtained from primary cultures replated in 35 mm Petri dishes ([…] cells/dish) and preloaded with [^3H]-adenosine (5×10^−8 M for a specific activity of 20.0 Ci/mM) for 30 minutes at 37° C.
The effect of AIT-082 on the proportional release of radioactively labeled adenine nucleosides and nucleotides from rat cultured astrocytes is shown in FIGS. 29A and 29B. Culture medium collected during the first hour of the release was analyzed by high performance liquid chromatography (HPLC) and the radioactivity associated with the different adenine compounds was measured and expressed as a percentage of the total radioactivity released. The results are shown for ATP, ADP, and AMP in FIG. 29A, and for adenosine, inosine, and hypoxanthine in FIG. 29B.

Row | Structure (SMILES) | BDNF mRNA (BDNF mRNA; AIT-082 100 mM) | BDNF mRNA (BDNF mRNA; AIT-082 + NGF (40 ng/ml)) | Locomotor Activity (Swiss Webster mice; AIT-082 0.5 mg/kg) | Locomotor Activity (Swiss Webster mice; AIT-082 30.0 mg/kg) | appearance and weight [1] | ADP, proportional release (rat cultured astrocytes) | Adenosine, proportional release (rat cultured astrocytes) | Inosine, proportional release (rat cultured astrocytes)
1 | O=C(CCn1cnc2c(=O)[nH]cnc21)Nc1ccc(C(=O)O)cc1 [AIT-082, N-4-carboxyphenyl-3-(6-oxohydropurin-9-yl)propanamide] | + | + | 323 Spontaneous movements per hour | 378 Spontaneous movements per hour | appeared normal and showed no overt signs of weight loss | – | – | –
2 | Nc1nc2c(ncn2[C@@H]2O[C@H](CO)[C@@H](O)[C@H]2O)c(=O)[nH]1 [guanosine] | – | – | – | – | – | (6.5 ± 0.7) percentage of the total [^3H]-purines released | (11.9 ± 0.8) percentage of the total [^3H]-purines released | (36.0 ± 3.9) percentage of the total [^3H]-purines released
